“And” between values parts separate entries of the source, which are not always exact repeats. Equal values may be shown once. “Also recorded” adds a separate entry of the source.
Columns and labels:
[1] = target: T1, nAChR α4/β2 (Homo sapiens, UniProt P17787+P43681); experiment: nAChR α4/β2 channel agonist assay (FLIPR membrane potential); assay type: cell-based; conditions: 30 μM Ach = 100%, HBPS = 0%
T1 construct: host or cells: HEK293 cells, transient transfection
Method: (§2) The following three (3) channels were evaluated: • 1. nAChR α3/β4 (encoded by the human CHRNA3 and CHRNB4 gene and stably expressed in CHO cells); • 2. nAChR α4/β2 (CHRNA4 and CHRNB2 gene and transiently expressed in HEK293 cells); and • 3. nAChR α7 (encoded by the human nicotinic α7 gene coexpressed in CHO cells with the chaperone RIC-3 encoded by the human RIC3 gene).
(§3) The ability of each test article to act as an agonist, a positive allosteric modulator or antagonist of three nAChR receptor channels was evaluated in the presence of 0.1 atropine. Both test articles were evaluated for responses on each nAChR channel at eight (8) concentrations: 0.3, 1, 3, 10, 30, 100, 300, and 1000 μM (n=4 for each concentration).
HEK293 or CHO cells were transiently or stably transfected with the appropriate human ion channel cDNAs. Stable transfectants were selected by coexpression with the antibiotic-resistance gene(s) incorporated into the expression plasmid(s). Selection pressure was maintained by including selection antibiotics in the culture medium. HEK293 cells were cultured in Dulbecco's Modified Eagle Medium/Nutrient Mixture F-12 (D-MEM/F-12) supplemented with 10% fetal bovine serum, 100 U/mL penicillin G sodium, 100 g/mL streptomycin sulfate and appropriate selection antibiotics. CHO cells were cultured in Ham's F-12 supplemented with 10% fetal bovine serum, 100 U/mL penicillin G sodium, 100 g/mL streptomycin sulfate and appropriate selection antibiotics.
For FLIPR TETRA™ assay, cells were plated in 384-well black wall, flat clear bottom microtiter plates (Type: BD Biocoat Poly-D-Lysine Multiwell Cell Culture Plate) at 20,000 to 30,000 cells per well (384-well plate). Cells were incubated at 37° C. overnight or until the cells reached a sufficient density in the wells (near confluent monolayer) to use in fluorescence assays. For α4β2 assay, cells were incubated at 27° C. for at least 7 hours before use.
Experiments were performed with either the FLIPR calcium sensitive dye kit (Fluo-8, ABDbioquest, for nAChR α3/β4 and nAChR α7) or FLIPR membrane potential kit (Molecular Devices, for nAChR α4/β2) according to the manufacturer's instructions. Briefly, cells were incubated with 201 dye for 30 min at 37° C. After dye loading period, for the agonist assay, 5 μl of the test, vehicle, or control articles at concentration of 5 times of final concentration were applied to the cells without stimulation. For the positive allosteric modulation (PAM) and antagonist assay, after test article application, the cells were stimulated with either low dose (for PAM) or high dose (for antagonist) of Ach.
Concentration-response data was fitted to a Hill equation of the following form:
where Base is the response at low concentrations of test article, Max is the maximum response at high concentrations, xhalf is the EC50 or IC50, the concentration of test article producing either half-maximal activation or inhibition, and rate is the Hill coefficient. Nonlinear least squares fits were made assuming a simple one-to-one binding model.
The ability of each test article to act as an agonist of the nAChR carried out in the absence of the positive control agonist. The signal elicited in the presence of the positive control agonist (30 μM Ach) was set to 100% and the signal from the vehicle control (HBPS) was set to 0%. Values were considered significant (bold font) if the test article mean was three or more standard deviations above from the vehicle control mean.

[2] = Necropsy observations and organ weights, day 15; assay type: in vivo, Sprague-Dawley rats
Method: Body weight and food consumption was measured daily for 14 days. On day 15, urine was collected on all surviving animals. The animals were euthanized and bled via cardiac puncture, and blood was collected for analysis. Tissues were collected, weighed, evaluated for gross abnormalities, and stored in 10% neutral-buffered formalin.
(§1) On day 15, urine was collected on all surviving animals for urinalysis. The animals were euthanized and bled via cardiac puncture. Blood was collected for hematology, clinical chemistry, and coagulation analysis. Tissues were collected, weighed, and stored in 10% neutral-buffered formalin for possible future analysis.

[3] = target: T1, nAChR α4/β2; assay type: cell-based; conditions: 100 μM Ach + 0.3 μM epibatidine; not concentration-dependent, IC50 not determinable
Method: as §2, §3
HEK293 or CHO cells were transiently or stably transfected with the appropriate human ion channel cDNAs. Stable transfectants were selected by coexpression with the antibiotic-resistance gene(s) incorporated into the expression plasmid(s). […]
For FLIPR TETRA™ assay, cells were plated in 384-well black wall, flat clear bottom microtiter plates (Type: BD Biocoat Poly-D-Lysine Multiwell Cell Culture Plate) at 20,000 to 30,000 cells per well (384-well plate). Cells were incubated at 37° C. overnight or until the cells reached a sufficient density in the wells (near confluent monolayer) to use in fluorescence assays. […]

[4] = Urinalysis, day 15; assay type: in vivo, Sprague-Dawley rats; conditions: Dose is 0.75 mg/kg nicotine
Text: as §1
There were no notable differences between the active treatment groups and controls and the observations are all consistent with those expected for this species.

[5] = Hematology, day 15; assay type: in vivo, Sprague-Dawley rats; conditions: for EOSINOPHIL / HCT / HGB / LYMPHOCYTE / MCH / MCHC / MCV / MONOCYTE / NEUTROPHIL SEG / PLATELET COUNT / RBC / RE[…] / WBC: 0.75 mg/kg, group mean
Text: as §1

[6] = Group E, 0.75 mg/kg, females, individual animals, tartrate, 0.75 mg/kg
[7] = Group E, 0.75 mg/kg, males, individual animals, tartrate, 0.75 mg/kg
[8] = female animals, 0.75 mg/kg, group mean
[9] = nicotine 0.75 mg/kg single i.v., male rats
[10] = individual animals E1-E10 (M and F)
[11] = individual animals E1-E10 (M and F), tartrate, 0.75 mg/kg

T1 sequence (P17787 26-502): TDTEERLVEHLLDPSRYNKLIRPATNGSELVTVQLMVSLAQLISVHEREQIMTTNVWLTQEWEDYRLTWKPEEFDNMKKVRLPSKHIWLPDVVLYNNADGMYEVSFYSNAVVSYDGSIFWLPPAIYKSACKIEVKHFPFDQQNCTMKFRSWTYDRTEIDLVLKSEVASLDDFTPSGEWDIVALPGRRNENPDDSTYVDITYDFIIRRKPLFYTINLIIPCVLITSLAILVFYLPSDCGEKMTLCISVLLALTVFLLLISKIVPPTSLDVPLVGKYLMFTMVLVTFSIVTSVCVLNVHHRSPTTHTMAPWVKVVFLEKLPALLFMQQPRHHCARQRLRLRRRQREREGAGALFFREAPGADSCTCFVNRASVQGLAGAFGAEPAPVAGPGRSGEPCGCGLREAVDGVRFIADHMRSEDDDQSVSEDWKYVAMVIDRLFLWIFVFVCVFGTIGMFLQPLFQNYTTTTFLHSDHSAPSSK
T1 sequence (P43681 29-627): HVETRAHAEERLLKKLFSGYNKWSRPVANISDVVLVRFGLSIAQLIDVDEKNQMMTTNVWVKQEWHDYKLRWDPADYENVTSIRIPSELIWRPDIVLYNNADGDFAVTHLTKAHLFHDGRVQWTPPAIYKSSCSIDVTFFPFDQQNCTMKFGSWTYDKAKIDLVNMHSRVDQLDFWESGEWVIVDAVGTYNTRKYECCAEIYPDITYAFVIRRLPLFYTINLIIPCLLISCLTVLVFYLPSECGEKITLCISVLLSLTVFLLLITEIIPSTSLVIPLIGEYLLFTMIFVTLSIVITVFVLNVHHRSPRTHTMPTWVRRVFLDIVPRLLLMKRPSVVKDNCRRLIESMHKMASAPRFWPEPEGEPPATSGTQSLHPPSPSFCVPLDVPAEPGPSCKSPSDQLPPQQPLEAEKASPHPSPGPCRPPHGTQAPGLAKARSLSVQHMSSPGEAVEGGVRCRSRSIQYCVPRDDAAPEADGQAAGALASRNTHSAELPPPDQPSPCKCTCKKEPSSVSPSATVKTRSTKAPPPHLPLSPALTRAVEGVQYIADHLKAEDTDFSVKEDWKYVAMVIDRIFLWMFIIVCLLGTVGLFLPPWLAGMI

C1=CCC(c2cccnc2)NC1 (racemic) [Anatabine (racemate)]
Normalized % Activation ([1]; test conc 0.3 μM): 0.28% | Normalized % Activation ([1]; test conc 1 μM): 5.36% | Normalized % Activation ([1]; test conc 3 μM): 10.41% | Normalized % Activation ([1]; test conc 10 μM): 12.65% | Normalized % Activation ([1]; test conc 30 μM): 9.07% | Normalized % Activation ([1]; test conc 100 μM): 16.96% | Normalized % Activation ([1]; test conc 300 μM): 50.60% | Normalized % Activation ([1]; test conc 1000 μM): 85.29%

CN1CCCC1c1cccnc1.O=C(O)C(O)C(O)C(=O)O (single isomer, unassigned; (-)) [Nicotine, (−) Nicotine hydrogen tartrate, reference compound]
Tissue Collection Weights: Brain [2, 6]: 1.77 g and 1.93 g and 1.87 g | Tissue Collection Weights: Heart [2, 6]: 1.09 g and 1.06 g and 0.83 g | Tissue Collection Weights: Kidneys [2, 6]: 2.34 g and 2.29 g (2×) | Tissue Collection Weights: Liver [2, 6]: 9.48 g and 10.11 g and 9.18 g | Tissue Collection Weights: Lungs [2, 6]: 1.20 g and 1.48 g and 1.28 g | Tissue Collection Weights: Ovaries/uterus [2, 6]: 1.59 g and 0.92 g and 1.32 g | Tissue Collection Weights: Small intestine [2, 6]: 0.41 g and 0.40 g and 0.28 g | Tissue Collection Weights: Spleen [2, 6]: 0.46 g (2×) and 0.76 g | Tissue Collection Weights: Thymus [2, 6]: 0.54 g and 0.48 g (2×) | Tissue Collection Weights: Brain [2, 7]: 2.06 g and 1.90 g and 1.84 g and 1.94 g | Tissue Collection Weights: Heart [2, 7]: 1.20 g and 1.17 g and 1.21 g and 1.42 g | Tissue Collection Weights: Kidneys [2, 7]: 3.19 g and 3.04 g and 2.87 g and 3.01 g | Tissue Collection Weights: Liver [2, 7]: 11.97 g and 12.52 g and 12.06 g | Tissue Collection Weights: Lungs [2, 7]: 1.84 g and 1.49 g and 1.62 g and 1.66 g | Tissue Collection Weights: Prostate [2, 7]: 0.41 g and 0.28 g (2×) and 0.45 g | Tissue Collection Weights: Small intestine [2, 7]: 0.71 g and 0.56 g and 0.53 g and 0.40 g | Tissue Collection Weights: Spleen [2, 7]: 0.81 g and 0.62 g and 0.78 g and 0.86 g | Tissue Collection Weights: Testes [2, 7]: 3.05 g and 3.13 g and 3.02 g and 2.92 g | Tissue Collection Weights: Thymus [2, 7]: 0.54 g and 0.46 g and 0.56 g and 0.76 g | Organ Weight Brain [2, 8]: 1.86 g | Organ Weight Heart [2, 8]: 0.99 g | Organ Weight Kidneys [2, 8]: 2.31 g | Organ Weight Liver [2, 8]: 9.59 g | Organ Weight Lungs [2, 8]: 1.32 g | Organ Weight Ovaries/uterus [2, 8]: 1.28 g | Organ Weight Small intestine [2, 8]: 0.36 g | Organ Weight Spleen [2, 8]: 0.56 g | Organ Weight Thymus [2, 8]: 0.50 g | Organ Weight Brain, Mean [2, 9]: 1.94 g | Organ Weight Heart, Mean [2, 9]: 1.25 g | Organ Weight Kidneys, Mean [2, 9]: 3.03 g | Organ Weight Liver, Mean [2, 9]: 12.69 g | Organ Weight Lungs, Mean [2, 9]: 1.65 g | Organ Weight Prostate, Mean [2, 9]: 0.36 g | Organ Weight Small intestine, Mean [2, 9]: 0.55 g | Organ Weight Spleen, Mean [2, 9]: 0.77 g | Organ Weight Testes, Mean [2, 9]: 3.03 g | Organ Weight Thymus, Mean [2, 9]: 0.58 g | inhibition of receptor activity [3]: inhibited receptor activity | Urinalysis VOLUME ([4]; animal E6 (F)): 10 UL | Urinalysis CLARITY [4, 10]: HAZY | Urinalysis COLOR [4, 10]: YELLOW | Urinalysis GLUCOSE [4, 10]: NEGATIVE | Urinalysis KETONES [4, 10]: NEGATIVE | Urinalysis UROBILINOGEN [4, 10]: NORMAL | Urinalysis VOLUME [4, 10]: <0.5 mL | Urinalysis PROTEIN [4, 11]: NEGATIVE; also recorded: TRACE | Urinalysis SPEC GRAVITY [4, 11]: 1.054 and 1.058 and 1.046 and 1.047 and 1.052 | Urinalysis pH [4, 11]: 6 and 6.5 (2×) and 7 and 7.5 | EOSINOPHIL ([5]; female): 0.0% | HCT ([5]; female): 46.7% | HGB ([5]; female): 16.0 g/dL | LYMPHOCYTE ([5]; female): 86.3% | MCH ([5]; female): 19.9 pg | MCHC ([5]; female): 34.2% | MCV ([5]; female): 58.7 fL | MONOCYTE ([5]; female): 1.0% | NEUTROPHIL SEG ([5]; female): 12.7% | PLATELET COUNT ([5]; female): 1.363e+06 µL⁻¹ | RBC ([5]; female): 8e+06 µL⁻¹ | RE[…] ([5]; female): 5.1% | WBC ([5]; female): 10200 µL⁻¹ | mean corpuscular volume (MCV) and mean corpuscular hemoglobin (MCH) ([5]; females, anatabine […], nicotine 0.75 mg/kg single i.v.): small, but statistically significant decreases | EOSINOPHIL ([5]; male): 0.0% | HCT ([5]; male): 46.6% | HGB ([5]; male): 15.8 g/dL | LYMPHOCYTE ([5]; male): 85.8% | MCH ([5]; male): 20.9 pg | MCHC ([5]; male): 34.0% | MCV ([5]; male): 61.5 fL | MONOCYTE ([5]; male): 2.5% | NEUTROPHIL SEG ([5]; male): 11.8% | PLATELET COUNT ([5]; male): 1.3558e+06 µL⁻¹ | RBC ([5]; male): 7.6e+06 µL⁻¹ | RE[…] ([5]; male): 5.2% | WBC ([5]; male): 11400 µL⁻¹

Reference: patent publication US20120196899A1, “METHODS AND PRODUCTS FOR TREATING INFLAMMATION” (Rock Creek Pharmaceuticals, Inc., priority 2010, published 2012)
